Data taken from US6458784B1, “Vitronectin receptor antagonists” (priority 1995, dated 2002).
Read-outs that look alike come from different tables or passages of the source.

Columns and labels:
[1] = molecular target: GPIIb-IIIa (fibrinogen receptor, αIIbβ3) (Homo sapiens, UniProt P05106+P08514); assay: Competitive binding to GPIIb-IIIa with [3H]-SK&F-107260 (inhibition of RGD-mediated GPIIb-IIIa binding)
Procedure: Ten units of outdated, washed human platelets (obtained from Red Cross) were lyzed by gentle stirring in 3% octylglucoside, 20 mM Tris-HCl, pH 7.4, 140 mM NaCl, 2 mM CaCl2 at 4° C. for 2 h. The lysate was centrifuged at 100,000 g for 1 h. The supernatant obtained was applied to a 5 mL lentil lectin sepharose 4B column (E.Y. Labs) preequilibrated with 20 mM Tris-HCl, pH 7.4, 100 mM NaCl, 2 mM CaCl2, 1% octylglucoside (buffer A). After 2 h incubation, the column was washed with 50 mL cold buffer A. The lectin-retained GPIIb-IIIa was eluted with buffer A containing 10% dextrose. All procedures were performed at 4° C.
A mixture of phosphatidylserine (70%) and phosphatidylcholine (30%) (Avanti Polar Lipids) were dried to the walls of a glass tube under a stream of nitrogen. […] The mixture was resuspended and sonicated in a bath sonicator for 5 min.
The binding assay was performed in a 96-well filtration plate assembly. (Millipore Corporation, Bedford, Mass.) using 0.22 um hydrophilic durapore membranes. The wells were precoated with 0.2 mL of 10 μg/mL polylysine (Sigma Chemical Co., St. Louis, Mo.) at room temperature for 1 h to block nonspecific binding. Various concentrations of unlabeled benzadiazapines were added to the wells in quadruplicate. […] The mixtures were incubated for 1 h at room temperature. […] Bound radioactivity remaining on the filters was counted in 1.5 mL Ready Solve (Beckman Instruments, Fullerton, Calif.) in a Beckman Liquid Scintillation Counter (Model LS6800), with 40% efficiency. […] All data points are the mean of quadruplicate determinations.
Competition binding data were analyzed by a nonlinear least-squares curve fitting procedure.

[2] = molecular target: T1, αvβ3 (vitronectin receptor) (Homo sapiens, UniProt P05106+P06756); assay: Solid-phase [3H]-SK&F-107260 binding to αvβ3 (inhibition of vitronectin binding); settings: for ratio* (enhanced binding to vitronectin receptor vs fibrinogen receptor = αIIbβ3/αVβ3): selectivity αIIbβ3/αVβ3
T1 construct: Human placenta or human platelet αvβ3 (0.1-0.3 mg/mL) in buffer T; from tissue; host or cells: human placenta or human platelets
T1 sequence (P06756 31-889 limits assumed): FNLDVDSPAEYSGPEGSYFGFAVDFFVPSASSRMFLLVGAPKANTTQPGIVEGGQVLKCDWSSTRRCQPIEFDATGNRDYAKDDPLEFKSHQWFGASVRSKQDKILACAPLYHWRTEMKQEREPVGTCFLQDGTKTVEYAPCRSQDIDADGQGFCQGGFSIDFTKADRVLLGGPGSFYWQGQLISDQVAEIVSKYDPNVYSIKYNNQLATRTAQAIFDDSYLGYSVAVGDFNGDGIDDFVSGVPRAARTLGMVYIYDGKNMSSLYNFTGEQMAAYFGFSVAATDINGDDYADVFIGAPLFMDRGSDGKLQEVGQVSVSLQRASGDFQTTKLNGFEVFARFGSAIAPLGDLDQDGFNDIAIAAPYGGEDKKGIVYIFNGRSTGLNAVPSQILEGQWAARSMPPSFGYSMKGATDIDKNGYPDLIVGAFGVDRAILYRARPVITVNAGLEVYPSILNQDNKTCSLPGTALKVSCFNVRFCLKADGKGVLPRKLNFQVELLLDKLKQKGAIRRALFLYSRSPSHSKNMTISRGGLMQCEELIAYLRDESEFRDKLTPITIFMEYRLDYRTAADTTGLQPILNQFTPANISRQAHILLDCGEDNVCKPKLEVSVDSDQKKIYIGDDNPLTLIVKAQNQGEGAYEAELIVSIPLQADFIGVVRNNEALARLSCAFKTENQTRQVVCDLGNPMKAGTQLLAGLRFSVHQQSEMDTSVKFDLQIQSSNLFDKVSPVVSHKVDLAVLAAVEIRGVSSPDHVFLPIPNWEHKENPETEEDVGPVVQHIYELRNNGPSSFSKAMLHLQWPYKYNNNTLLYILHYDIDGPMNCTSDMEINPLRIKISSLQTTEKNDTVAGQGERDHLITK
T1 sequence (P06756 891-1048 partner limits assumed): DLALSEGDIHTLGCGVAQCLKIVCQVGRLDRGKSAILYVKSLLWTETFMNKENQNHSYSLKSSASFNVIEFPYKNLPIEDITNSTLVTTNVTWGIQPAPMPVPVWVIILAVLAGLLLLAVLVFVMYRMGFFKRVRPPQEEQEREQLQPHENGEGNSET
T1 sequence (P05106 27-788): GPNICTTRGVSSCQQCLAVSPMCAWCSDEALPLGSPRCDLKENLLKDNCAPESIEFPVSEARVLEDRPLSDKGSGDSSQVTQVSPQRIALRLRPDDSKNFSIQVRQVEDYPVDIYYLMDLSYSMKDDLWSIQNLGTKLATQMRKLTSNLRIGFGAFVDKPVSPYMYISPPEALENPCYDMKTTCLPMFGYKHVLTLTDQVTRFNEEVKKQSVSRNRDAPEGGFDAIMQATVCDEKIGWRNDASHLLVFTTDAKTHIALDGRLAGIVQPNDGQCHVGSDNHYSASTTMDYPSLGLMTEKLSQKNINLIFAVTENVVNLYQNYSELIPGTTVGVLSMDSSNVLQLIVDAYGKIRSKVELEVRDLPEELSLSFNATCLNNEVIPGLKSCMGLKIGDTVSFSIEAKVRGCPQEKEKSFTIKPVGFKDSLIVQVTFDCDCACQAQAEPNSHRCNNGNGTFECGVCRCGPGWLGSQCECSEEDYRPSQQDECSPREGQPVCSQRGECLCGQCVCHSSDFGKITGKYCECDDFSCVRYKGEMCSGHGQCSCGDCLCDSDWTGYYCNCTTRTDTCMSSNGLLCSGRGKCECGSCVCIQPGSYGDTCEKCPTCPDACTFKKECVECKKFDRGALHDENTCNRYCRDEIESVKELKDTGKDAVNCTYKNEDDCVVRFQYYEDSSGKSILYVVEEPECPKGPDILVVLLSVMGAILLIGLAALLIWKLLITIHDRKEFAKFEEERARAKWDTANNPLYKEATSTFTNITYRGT
Procedure: Inhibition of Vitronectin Binding
0.1-0.2 μg of αvβ3 was added per well. The plates were incubated overnight at 4° C. […] Following incubation the wells were aspirated completely and washed twice with 0.2 mL buffer A.
This solution is then diluted to the required final compound concentration.
The plates were incubated for 1 hr at room temperature. Following incubation the wells were aspirated completely and washed once with 0.2 mL of ice cold buffer A in a well-to-well fashion.

Sequence of GPIIb-IIIa (fibrinogen receptor, αIIbβ3) (P08514 32-887 limits assumed): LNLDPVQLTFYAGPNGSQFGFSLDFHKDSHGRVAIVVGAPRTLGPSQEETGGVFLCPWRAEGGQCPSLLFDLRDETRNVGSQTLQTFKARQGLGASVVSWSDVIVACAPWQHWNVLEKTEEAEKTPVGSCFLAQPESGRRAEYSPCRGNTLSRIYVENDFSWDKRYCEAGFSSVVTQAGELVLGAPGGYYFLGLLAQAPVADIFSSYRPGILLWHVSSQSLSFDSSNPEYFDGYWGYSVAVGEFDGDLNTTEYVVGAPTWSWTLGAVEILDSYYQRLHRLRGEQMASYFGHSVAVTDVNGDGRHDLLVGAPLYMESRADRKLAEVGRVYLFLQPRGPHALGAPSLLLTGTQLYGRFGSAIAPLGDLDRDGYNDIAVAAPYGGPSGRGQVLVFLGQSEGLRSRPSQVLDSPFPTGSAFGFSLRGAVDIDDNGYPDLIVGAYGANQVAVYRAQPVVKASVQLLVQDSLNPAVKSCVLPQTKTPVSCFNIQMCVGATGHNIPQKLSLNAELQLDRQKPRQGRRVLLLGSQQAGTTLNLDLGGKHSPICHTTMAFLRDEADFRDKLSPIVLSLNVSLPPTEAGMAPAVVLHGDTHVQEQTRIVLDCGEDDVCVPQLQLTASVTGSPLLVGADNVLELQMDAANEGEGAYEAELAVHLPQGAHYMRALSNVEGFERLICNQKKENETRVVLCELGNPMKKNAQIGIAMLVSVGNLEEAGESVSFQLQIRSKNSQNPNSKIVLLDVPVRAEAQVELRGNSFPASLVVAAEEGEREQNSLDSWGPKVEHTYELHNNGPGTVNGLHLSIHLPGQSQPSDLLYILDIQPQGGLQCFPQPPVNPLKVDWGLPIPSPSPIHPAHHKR
Sequence of GPIIb-IIIa (fibrinogen receptor, αIIbβ3) (P08514 891-1039 partner limits assumed): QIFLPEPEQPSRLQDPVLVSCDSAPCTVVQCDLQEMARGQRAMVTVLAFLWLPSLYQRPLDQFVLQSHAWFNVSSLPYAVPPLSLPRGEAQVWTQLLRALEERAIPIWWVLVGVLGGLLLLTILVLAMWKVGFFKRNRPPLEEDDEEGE
Sequence of GPIIb-IIIa (fibrinogen receptor, αIIbβ3) (P05106 27-788): as the sequence (P05106 27-788) above

Row | Ki [1] | Ki ([2]; read-out: αVβ3) | ratio* (enhanced binding to vitronectin receptor vs fibrinogen receptor = αIIbβ3/αVβ3) [2] | SMILES | Ki ([2]; displacement of 5.0 nM [3H]-SK&F-107260 from human placenta or platelet αvβ3, table does not say whether IC50 or Ki, method derives Ki, read-out: αVβ3) | Ki [2]
1 | 37.5 µM | 3.9 µM | 9.6 | CN1Cc2cc(NC(=O)[C@@H](N)Cc3ccccc3)ccc2CC(CC(=O)O)C1=O (mixture of isomers) [Example 15, 8-[[2S-amino-3-phenylpropanoyl]amino]-2-methyl-3-oxo-2,3,4,5-tetrahydro-1H-2-benzazepine-4RS-acetic acid] | – | –
2 | 2.13 µM | 1.1 µM | >1.9 | CN1Cc2cc(C(=O)N3CCNCC3)ccc2NC(CC(=O)O)C1=O (racemic) [Example 10, (±)-4-methyl-3-oxo-7-[(1-piperazinyl)carbonyl]-2,3,4,5-tetrahydro-1H-1,4-benzodiazepine-2-acetic acid] | – | –
3 | 20.1 µM | 1.45 µM | 14 | CN1Cc2cc(C(=O)N3CCC(N4CCCCC4)CC3)ccc2NC(CC(=O)O)C1=O (racemic) [Example 11, (±)-4-methyl-3-oxo-7-[1-[4-(1-piperidinyl)piperidinyl]carbonyl]-2,3,4,5-tetrahydro-1H-1,4-benzodiazepine-2-acetic acid] | – | –
4 | > 50 µM | 6.2 µM | >8 | CN1Cc2cc(C(=O)N3CCN(c4ncccn4)CC3)ccc2NC(CC(=O)O)C1=O (racemic) [Example 14, (±)-4-methyl-3-oxo-7-[1-[4-(2-pyrmidinyl)piperazinyl]carbonyl]-2,3,4,5-tetrahydro-1H-1,4-benzodiazepine-2-acetic acid] | – | –
5 | 28 µM | 9.5 µM | 2.9 | CN(CC(O)c1ccccc1)C(=O)c1ccc2c(c1)CN(C)C(=O)C(CC(=O)O)C2 (racemic) [Example 16, (±)-8-[[[(2-hydroxy-2-phenyl)ethyl]methylamino]carbonyl]-2-methyl-3-oxo-2,3,4,5-tetrahydro-1H-2-benzazepine-4-acetic acid] | – | –
6 | > 50 µM | 15.2 µM | >3 | CN(CCO)C(=O)c1ccc2c(c1)CN(C)C(=O)C(CC(=O)O)N2 (racemic) [Example 17, (±)-7-[[[N-(2-hydroxyethyl)-N-methyl]amino]carbonyl]-4-methyl-3-oxo-2,3,4,5-tetrahydro-1H-1,4-benzodiazepine-2-acetic acid] | – | –
7 | 30 µM | 1.3 µM | 23 | CN1Cc2cc(NC(=O)CNc3ccccn3)ccc2CC(CC(=O)O)C1=O (racemic) [Example 18, (±)-8-[[(2-(2-pyridinylamino)acetyl]amino]-2-methyl-3-oxo-2,3,4,5-tetrahydro-1H-2-benzazepine-4-acetic acid] | – | –
8 | 45 µM | 1.55 µM | 29 | CN1Cc2cc(NC(=O)CN)ccc2CC(CC(=O)O)C1=O (racemic) [Example 20, (±)-8-[(2-aminoacetyl)amino]-2-methyl-3-oxo-2,3,4,5-tetrahydro-1h-2-benzazepine-4-acetic acid] | – | –
9 | 52 µM | 0.85 µM | 61 | CN1Cc2cc(NC(=O)CCN)ccc2CC(CC(=O)O)C1=O (racemic) [Example 21, (+/±)-8-[(3-aminopropanoyl)amino]-2-methyl-3-oxo-2,3,4,5-tetrahydro-1H-2-benzazepine-4-acetic acid] | – | –

The remaining lines, values behind:

Row | SMILES | Ki [1] | Ki ([2]; read-out: αVβ3) | ratio* (enhanced binding to vitronectin receptor vs fibrinogen receptor = αIIbβ3/αVβ3) [2] | Ki ([2]; displacement of 5.0 nM [3H]-SK&F-107260 from human placenta or platelet αvβ3, table does not say whether IC50 or Ki, method derives Ki, read-out: αVβ3) | Ki [2]
10 | Nc1ccc(NC(=O)c2ccc3c(c2)CN(CCc2ccccc2)C(=O)C(CC(=O)O)N3)cn1 (racemic) [Example 3, (±)-7-[[(6-amino-3-pyridinyl)amino]carbonyl]-3-oxo-4-(2-phenylethyl)-2,3,4,5-tetrahydro-1H-1,4-benzodiazepine-2-acetic acid] | 110 µM | 9.18 µM | 12 | – | –
11 | CN1Cc2cc(NC(=O)c3ccccn3)ccc2CC(CC(=O)O)C1=O (racemic) [Example 5, (±)-2-methyl-3-oxo-8-[[2-(pyridinyl)carbonyl]amino]-2,3,4,5-tetrahydro-1H-2-benzazepine-4-acetic acid] | > 50 µM | 15.3 µM | >3 | – | –
12 | CN1Cc2cc(NC(=O)OCc3ccccc3)ccc2CC(CC(=O)O)C1=O (racemic) [Example 6, (±)-8-[(benzyloxycarbonyl)amino]-2-methyl-3-oxo-2,3,4,5-tetrahydro-1H-2-benzazepine-4-acetic acid] | 17.5 µM | 7.5 µM | 2.3 | – | –
13 | CN1Cc2cc(C(=O)Nc3cccc(C(N)=O)c3)ccc2NC(CC(=O)O)C1=O (racemic) [Example 8, (±)-7-[[[3-(aminocarbonyl)phenyl]amino]carbonyl]-4-methyl-3-oxo-2,3,4,5-tetrahydro-1H-1,4-benzodiazepine-2-acetic acid] | > 50 µM | 12.3 µM | >4 | – | –
14 | CN1Cc2cc(C(=O)N3CCN(c4ccccc4)CC3)ccc2NC(CC(=O)O)C1=O (racemic) [Example 9, (±)-4-methyl-3-oxo-7-[1-(4-phenylpiperazinyl)carbonyl]-2,3,4,5-tetrahydro-1H-1,4-benzodiazepine-2-acetic acid] | > 100 µM | – | >11 | 9.23 µM | –
15 | CN1Cc2cc(C(=O)N3CCN(Cc4ccccc4)CC3)ccc2NC(CC(=O)O)C1=O (racemic) [Example 13, (±)-4-methyl-3-oxo-7-[1-[4-(phenylmethyl)piperazinyl]carbonyl]2,3,4,5-tetrahydro-1H-1,4-benzodiazepine-2-acetic acid] | 15.4 µM | 9.5 µM | 1.62 | – | –
16 | CN1Cc2cc(C(=O)NCc3cccnc3)ccc2NC(CC(=O)O)C1=O (racemic) [Example 22, (±)-4-methyl-3-oxo-7-[[[(3-pyridinyl)methyl]amino]carbonyl]-2,3,4,5-tetrahydro-1H-1,4-benzodiazepine-2-acetic acid] | 27 µM | – | 3 | – | 9.02 µM
